Measurements: US10441566B2, “Use of butylidenephthalide” (EVERFRONT BIOTECH INC., priority 2016, dated 2019)

Tests used:
Type in all cases: cell-based
[1] = system: buccal mucosal fibroblasts (BMFs; BMF-1, BMF-2); assay: MTT cytotoxicity evaluation, relative viability of buccal mucosal fibroblasts; conditions: BP at a concentration of no more than 50 μg/mL, 48 hours, FIG. 1
Text: (§1) Two groups of buccal mucosal fibroblasts obtained from normal oral buccal mucosa (hereinafter abbreviated as “BMF-1” and “BMF-2”; or collectively called “BMFs”), and two groups of fibrotic buccal mucosal fibroblasts obtained from fibrotic oral buccal mucosa (hereinafter abbreviated as “fBMF-1” and “fBMF-2”; or collectively called “fBMFs”) were respectively subjected to the following procedures: seeding the cells into a 24-well plate by a concentration of 2×10^4 cells/well to cultivate the cells to reach a 80% confluence, and then respectively treating the cells with different concentrations (0, 12.5, 25, 50, 100, or 200 μg/mL) of butylidenephthalide (BP) for 48 hours. […]

[2] = system: fibrotic buccal mucosal fibroblasts (fBMFs; fBMF-1, fBMF-2); assay: MTT cytotoxicity evaluation, relative viability of fibrotic buccal mucosal fibroblasts; conditions: BP at a concentration of no more than 50 μg/mL, 48 hours, FIG. 1
Text: as §1

[3] = system: Twist gene; assay: Q-PCR expression of EMT marker gene Twist in fBMFs; conditions: fBMF-1 and fBMF-2, BP 0, 25, or 50 μg/mL, 48 hours, with the increment in concentration, FIG. 2
Text: as §1
(§2) It is known that during the process of epithelial-mesenchymal transition (EMT), the expressions of Twist gene, Snail gene, and ZEB1 gene in the cells will increase, and thus, these genes are known as the marker genes of EMT. In this experiment, quantitative real-time polymerase chain reaction (Q-PCR) was conducted to investigate whether butylidenephthalide (BP) can affect the expressions of Twist gene, Snail gene, and ZEB1 gene in oral submucosal tissue cells. […]

[4] = system: Snail gene; assay: Q-PCR expression of EMT marker gene Snail in fBMFs; conditions: fBMF-1 and fBMF-2, BP 0, 25, or 50 μg/mL, 48 hours, with the increment in concentration, FIG. 2
Text: as §1, §2

[5] = system: ZEB1 gene; assay: Q-PCR expression of EMT marker gene ZEB1 in fBMFs; conditions: fBMF-1 and fBMF-2, BP 0, 25, or 50 μg/mL, 48 hours, with the increment in concentration, FIG. 2
Text: as §1, §2

[6] = system: fibrotic buccal mucosal fibroblasts (fBMFs); assay: Transwell cell migration assay; conditions: BP 0, 25, or 50 μg/mL, 24 hours migration, FIGS. 3A and 3B
Procedure: In this experiment, a transwell cell migration assay system (Transwell® system; purchased from Corning company, UK) and a polycarbonate membrane with a pore size of 8 μm (purchased from Corning company, UK) were used to further investigate whether butylidenephthalide (BP) can inhibit the abilities of oral submucosal tissue cells to crawl and invade.
First, the cell medium containing 10% FBS (fetal bovine serum) was added into the lower chamber, and an apparatus of polycarbonate membrane was placed on the bottom of a cell culture plate, i.e., upper chamber. On the other hand, the BMF-1, BMF-2, fBMF-1, and fBMF-2 provided by [Preparation example A] (2×10^4 cells/group) were evenly mixed with a 250 μL serum-free medium that is externally added with butylidenephthalide (BP) by a concentration of 0, 25, or 50 μg/mL. Then, the mixtures thus obtained were respectively added into the upper chambers. Thereafter, the whole transwell cell migration assay system was placed in an incubator to induce cell migration for 24 hours. […] Then, the polycarbonate membrane were fixed with 4% paraformaldehyde for 10 minutes and stained with 0.1% crystal violet. […] The cell numbers on the membrane were calculated into the relative cell migration ability (%) by using the results of BMFs not treated with butylidenephthalide (BP) as a basis.

[7] = system: α-SMA gene; assay: Q-PCR expression of myofibroblast marker gene α-SMA in fBMFs; conditions: fBMF-1 and fBMF-2, BP 0, 25, or 50 μg/mL, 48 hours, with the increment in concentration, FIG. 4
Text: as §1
(§3) It is known that during the process of the fibrosis of tissue, the tissue cells would differentiate and become myofibroblasts, wherein the α-SMA gene, Col1a1 gene, and S100A4 gene are the maker genes of myofibroblasts. Thus, in this experiment, a quantitative real-time polymerase chain reaction (Q-PCR) was conducted to investigate whether butylidenephthalide (BP) can inhibit the expressions of α-SMA gene, Col1a1 gene, and S100A4 gene in oral submucosal tissue cells. […]

[8] = system: Col1a1 gene; assay: Q-PCR expression of myofibroblast marker gene Col1a1 in fBMFs; conditions: fBMF-1 and fBMF-2, BP 0, 25, or 50 μg/mL, 48 hours, with the increment in concentration, FIG. 4
Text: as §1, §3

[9] = system: S100A4 gene; assay: Q-PCR expression of myofibroblast marker gene S100A4 in fBMFs; conditions: fBMF-1 and fBMF-2, BP 0, 25, or 50 μg/mL, 48 hours, with the increment in concentration, FIG. 4
Text: as §1, §3

[10] = system: fibrotic buccal mucosal fibroblasts (fBMFs); assay: Collagen gel contraction assay; conditions: fBMFs in collagen gel, BP 0, 25, or 50 μg/mL, 48 hours, with the increment in concentration, FIGS. 5A and 5B
Procedure: The BMF-1, BMF-2, fBMF-1, and fBMF-2 provided by [Preparation example A] were respectively dissolved in 0.5 mL of 2 mg/mL collagen solution (purchased from Sigma-Aldrich), and the mixtures thus obtained were moved into a 24-well plate. Then, the 24-well plate was placed in an incubator at […] and 5% CO2 for 2 hours to coagulate the collagen gels. The gels thus obtained were respectively called “BMFs group”, and “fBMFs group” gels. Thereafter, the coagulated gels were disengaged from the culture plate, and 0.5 mL of a medium containing different concentrations (0, 25, or 50 μg/mL) of butylidenephthalide (BP) was added thereinto to incubate with the gels for 48 hours. The contraction of gel in each group were observed and photographed. Finally, the relative gel area (%) of each “fBMFs group” was calculated by using the image-analyzed software, ImageJ (National Institutes of Health, USA) and using the results of “BMFs group” not being treated with butylidenephthalide (BP) as a basis.

## CCCC=C1OC(=O)c2ccccc21 [butylidenephthalide]
[1]
  growth (relative viability) of BMFs: will not be affected
[2]
  growth (relative viability) of fBMFs: will not be affected
[3]
  expression of Twist gene: significantly decreased
[4]
  expression of Snail gene: significantly decreased
[5]
  expression of ZEB1 gene: significantly decreased
[6]
  cells which migrated from the upper chamber to the lower chamber (relative migration ability): decrease with the increment in the concentration
[7]
  expression of α-SMA gene: significantly decreased
[8]
  expression of Col1a1 gene: significantly decreased
[9]
  expression of S100A4 gene: significantly decreased
[10]
  gel contraction (relative gel area): significantly mitigate
